In article PMC12198407, “Preclinical and first-in-human of purinostat mesylate, a novel selective HDAC I/IIb inhibitor, in relapsed/refractory multiple myeloma and lymphoma” (Signal Transduction and Targeted Therapy, 2025):
Read-outs that look alike come from different tables or passages of the source.

Assays:
HDAC11 = HDAC11 (Homo sapiens, UniProt Q96DB2); assay: HDAC enzyme activity in vitro; assay type: biochemical
ARD = assay: Cell viability CCK8; assay type: cell-based; conditions: Homo sapiens, 72 h, no unit in table, read-out: Antiproliferative activity IC50
Protocol: (§1) PM, panobinostat, Pom and DXM were dissolved in DMSO and stored at -20°C freezer. Cells were seeded at a density of 1.0-3.0 × 10^4 cells/well/100 μL in 96-well plates. After overnight incubation, cells were treated with the drug-containing culture medium for 24, 48, or 72 hours, and cell viability was measured using CCK8 (Oriscience, Chengdu, China) at the indicated time points with Biotek Cytation 3 at a wavelength of 450 nm. The IC50 values were calculated using GraphPad Prism 9.4.1, and Calcusyn 2.0 software was employed to calculate the CI values.

KMS-11 = assay: Cell viability CCK8; assay type: cell-based; conditions: Homo sapiens; KMS-11, 72 h; no unit in table; read-out: Antiproliferative activity IC50
Protocol: as §1

MM1R = assay: Cell viability CCK8; assay type: cell-based; conditions: Homo sapiens, MM.1R, 72 h, no unit in table, read-out: Antiproliferative activity IC50
Protocol: as §1

Raji = assay: Cell viability CCK8; assay type: cell-based; conditions: Homo sapiens, 72 h, no unit in table, read-out: Antiproliferative activity IC50
Protocol: as §1

SUDHL-4 = assay: Cell viability CCK8; assay type: cell-based; conditions: Homo sapiens, SU-DHL-4; SUDHL-4, 72 h; no unit in table; read-out: Antiproliferative activity IC50
Protocol: as §1

TMD-8 = assay: Cell viability CCK8; assay type: cell-based; conditions: Homo sapiens, TMD8; TMD-8, 72 h; no unit in table; read-out: Antiproliferative activity IC50
Protocol: as §1

[1] = system: RPMI-8226 xenograft (TP53 E285K); assay: RPMI-8226 xenograft mouse model, PM+Pd combination; assay type: in vivo, NOD-SCID mice; conditions: PM 5 mg/kg; Dara+Bort+DXM 5+0.1+1; Pd 2.5+1; PM+Pd 5+2.5+1 mg/kg
Protocol: Mice received subcutaneous inoculation with 0.5 × 10^7 MM1S or RPMI-8226 cells, to establish xenograft models. […] When tumors reached 150–250 mm^3, mice were treated with various compounds. PM and panobinostat were administered intravenously three times a week at 5 mg/kg in combination therapy. […] Tumor volume (tumor volume (mm^3) = π/6 × length × width^2) and body weights were measured every two days. At the end, tumor tissues were weighed, and antitumor activity was evaluated by the tumor inhibition rate = (1 − tumor weight of treatment group/tumor weight of vehicle group) × 100%.

[2] = system: serum cytokines and T cells in PB; assay: Phase I trial, serum cytokines and PB T cells in responders; assay type: in vivo, human; conditions: after 1 week
bone destruction = assay: Micro-CT of femur, 5TMM model; assay type: in vivo, C57BL/KawRij mice; conditions: 10 mg/kg for 4 weeks
Protocol: The cMYC-KRAS12V-induced plasmacytoma mouse model in BALB/c (GemPharmatech Co., Ltd., Nanjing, China) was established as previously described.[33] On day 28 or 35 post bone marrow transplantation, recipients received various treatments. The 5TMM mouse model was established as previously described.[55] The 5TGM1-luc cells were intravenously injected into 6-week-old C57BL/KawRij mice (Harlan Co. Netherlands) with 2 × 10^6 cells per mouse. After three weeks, mice were treated with vehicle or PM 10 mg/kg. Serum Ca^2+ levels were monitored weekly for three weeks after the start of administration. Kaplan-Meier survival curves were generated for each treatment group. Additionally, the 5TMM mouse model studying PM’s effects on immune response and bone destruction involved randomizing mice into vehicle and PM (10 mg/kg) groups one week after inoculation. T cell subsets were analyzed by flow cytometry 24 h after a single dose and 1 month after vehicle or PM treatment. The mice were sacrificed after 1 month of treatment, and the bone destruction was detected by Micro-CT.

[3] = system: human Burkitt lymphoma Daudi; assay: Daudi subcutaneous tumor model; assay type: in vivo, NOD/SCID mice; conditions: for average median survival time: satellite group
[4] = system: human Burkitt lymphoma Raji; assay: Raji subcutaneous tumor model; assay type: in vivo, NOD/SCID mice
Excerpt: In contrast, both batches of the positive control CODOX group experienced instances of individual mortality during administration.

mouse B-cell lymphoma = assay: Ighmyc transgenic B-cell lymphoma model, survival; assay type: in vivo, mice
CYP2C9 = molecular target: T1, CYP2C9 (Homo sapiens, UniProt P11712); assay: CYP inhibition, human liver microsomes; assay type: in vitro ADME
T1 construct: human liver microsomal cytochrome P450 isoenzymes; from tissue; host or cells: human liver microsomes

[5] = Metabolic stability in liver microsomes; assay type: in vitro ADME; conditions: for half-life at 1 µM: NADPH, 37°C; for CLint scaled at 1 µM: read-out: liver intrinsic clearance (CLint)
Protocol: The metabolic stability of Purinostat Mesylate was evaluated in CD-1 mice, SD rats, Beagle dogs, crab-eating monkeys, and human liver microsomes. Under conditions of 37°C, 1 µM of Purinostat Mesylate was incubated with liver microsomes from the five species mentioned above, supplemented with a NADPH regeneration system, for varying durations up to 60 minutes. The concentration of Purinostat Mesylate in the resulting samples was analyzed using LC/MS/MS.

HDAC11, sequence (Q96DB2 whole entry): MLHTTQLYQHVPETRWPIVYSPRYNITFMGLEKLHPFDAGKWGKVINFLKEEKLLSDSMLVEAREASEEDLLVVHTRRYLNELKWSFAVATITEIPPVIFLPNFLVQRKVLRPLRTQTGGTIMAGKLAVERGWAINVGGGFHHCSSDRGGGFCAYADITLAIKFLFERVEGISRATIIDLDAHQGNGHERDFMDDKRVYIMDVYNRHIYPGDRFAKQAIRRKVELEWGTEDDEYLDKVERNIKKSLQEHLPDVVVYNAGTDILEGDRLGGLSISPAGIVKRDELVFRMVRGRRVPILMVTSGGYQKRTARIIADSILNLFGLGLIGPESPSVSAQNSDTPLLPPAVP
T1 sequence (P11712 whole entry): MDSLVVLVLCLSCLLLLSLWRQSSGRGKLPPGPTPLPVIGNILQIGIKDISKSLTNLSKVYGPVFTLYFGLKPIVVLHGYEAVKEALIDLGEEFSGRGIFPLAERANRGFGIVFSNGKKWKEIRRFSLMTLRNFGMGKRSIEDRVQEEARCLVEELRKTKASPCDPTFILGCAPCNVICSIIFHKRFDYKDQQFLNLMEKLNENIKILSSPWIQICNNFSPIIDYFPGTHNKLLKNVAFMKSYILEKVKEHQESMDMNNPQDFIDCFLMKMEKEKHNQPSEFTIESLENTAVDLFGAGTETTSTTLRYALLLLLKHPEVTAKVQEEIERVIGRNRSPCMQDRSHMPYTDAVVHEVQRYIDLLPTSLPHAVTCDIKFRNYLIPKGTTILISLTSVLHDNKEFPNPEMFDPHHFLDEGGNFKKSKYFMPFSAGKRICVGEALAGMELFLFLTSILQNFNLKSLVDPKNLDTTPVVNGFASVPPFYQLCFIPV

CN(Cc1nc2c(N3CCOCC3)nc(-c3ccc(N)cc3)nc2n1C)c1ncc(C(=O)NO)cn1.CS(=O)(=O)O [PM, 2-(((2-(4-Aminophenyl)-9-methyl-6-(4-morpholinyl)-9H-purine-8-yl)methyl)methylamino)-N-hydroxy-5-pyrimidine-carboxamide Mesylate]
IC50 (HDAC11): 3350 nM | IC50 (ARD): 0.42 ± 0.04 nM | IC50 (KMS-11): 1.99 ± 0.21 nM | IC50 (MM1R): 0.33 ± 0.01 nM | IC50 (Raji): 1.96 ± 0.18 nM | IC50 (SUDHL-4): 0.73 ± 0.05 nM | IC50 (TMD-8): 0.99 ± 0.14 nM | tumor inhibition rate [1]: 86.05% | proportion of CD3+CD4+ T cells in PB ([2]; before 4.12%): 6.49% | proportion of CD3+CD8+ T cells in PB ([2]; before 4.30%): 9.56% | proportion of CD3+ T cells in PB ([2]; before 8.42%): 16.05% | bone structure of femur (Micro-CT) (bone destruction): effectively prevented bone destruction and trabecular changes on the femoral surface | T/C ([3]; 2.5 mg/kg): 17.75±2.47% | tumor inhibition rate ([3]; 2.5 mg/kg, mean of two batches): 82.84 ± 2.18% | T/C ([3]; 5 mg/kg): 10.40±2.97% | tumor inhibition rate ([3]; 5 mg/kg): 87.86 ± 2.38% | T/C ([3]; 10 mg/kg): 7.35±3.75% | tumor inhibition rate ([3]; 10 mg/kg): 90.86 ± 3.84% | median survival time ([3]; 20 mg/kg, paused day 28, resumed day 35): 54.4 days | average median survival time ([3]; 5 mg/kg): 54.5 ± 5.0 days | average median survival time ([3]; 10 mg/kg): 58.5 ± 2.1 days | T/C ([4]; 1.25 mg/kg): 48.13±5.13% | tumor inhibition rate ([4]; 1.25 mg/kg, mean of two batches): 52.03 ± 3.36% | T/C ([4]; 2.5 mg/kg): 31.86±8.56% | tumor inhibition rate ([4]; 2.5 mg/kg): 66.15 ± 12.49% | T/C ([4]; 5 mg/kg): 18.11±7.50% | tumor inhibition rate ([4]; 5 mg/kg): 81.65 ± 8.67% | T/C ([4]; 10 mg/kg): 7.75±5.02% | tumor inhibition rate ([4]; 10 mg/kg): 89.98 ± 8.01% | median survival time ([4]; satellite group, 10 mg/kg): 39 days | median survival time (mouse B-cell lymphoma; 2.5 mg/kg, solvent control 10.5 days): 19.5 days | median survival time (mouse B-cell lymphoma; 5 mg/kg): 23 days | median survival time (mouse B-cell lymphoma; 10 mg/kg): 22.5 days | IC50 (CYP2C9): > 10000 nM | half-life at 1 µM ([5]; Beagle, dog): 1.63 h | CLint scaled at 1 µM ([5]; Beagle, dog): 20.4 mL/min/kg | half-life at 1 µM ([5]; CD-1, mouse): > 3.1 h | CLint scaled at 1 µM ([5]; CD-1, mouse): < 29.7 mL/min/kg | half-life at 1 µM ([5]; SD, rat): > 3.1 h | CLint scaled at 1 µM ([5]; SD, rat): < 13.5 mL/min/kg | half-life at 1 µM ([5]; human): > 3.1 h | CLint scaled at 1 µM ([5]; human): < 6.8 mL/min/kg | half-life at 1 µM ([5]; monkey): 0.0517 h | CLint scaled at 1 µM ([5]; monkey): 598 mL/min/kg
